From ChEMBL document CHEMBL3046438, “Synthesis and Cytotoxic Evaluation of 1,2,3-Trisubstituted 2-(2-Oxoalkyl)-2,3-dihydrobenzimidazoles” (Med Chem Res, 2005)

Key:
RD [1] = test: Cytotoxicity against Homo sapiens (human) RD cells assessed as cell viability at 10^-4 M after 72 hr by trypan blue exclusion assay relative to control; format: functional; details: read-out: Activity
RD [2] = test: Cytotoxicity against Homo sapiens (human) RD cells assessed as cell viability at 10^-4 M after 96 hr by trypan blue exclusion assay relative to control; format: functional; details: read-out: Activity
RD [3] = test: Cytotoxicity against Homo sapiens (human) RD cells assessed as cell viability at 10^-4 M after 48 hr by trypan blue exclusion assay relative to control; format: functional; details: read-out: Activity
A2058 [4] = test: Cytotoxicity against Homo sapiens (human) A2058 cells assessed as cell viability at 10^-4 M after 96 hr by trypan blue exclusion assay relative to control; format: functional; details: A2058, 96 h, read-out: Activity
A2058 [5] = test: Cytotoxicity against Homo sapiens (human) A2058 cells assessed as cell viability at 10^-4 M after 72 hr by trypan blue exclusion assay relative to control; format: functional; details: A2058, 72 h, read-out: Activity
A2058 [6] = test: Cytotoxicity against Homo sapiens (human) A2058 cells assessed as cell viability at 10^-4 M after 48 hr by trypan blue exclusion assay relative to control; format: functional; details: A2058, 48 h, read-out: Activity
A2058 [7] = test: Cytotoxicity against Homo sapiens (human) A2058 cells assessed as cell viability at 10^-4 M after 24 hr by trypan blue exclusion assay relative to control; format: functional; details: A2058, 24 h, read-out: Activity
[8] = Cytotoxicity against Homo sapiens (human) FL cells assessed as cell viability at 10^-4 M after 96 hr by trypan blue exclusion assay relative to control; format: cell-based; details: read-out: Activity
RD [9] = test: Cytotoxicity against Homo sapiens (human) RD cells assessed as cell viability at 10^-4 M after 24 hr by trypan blue exclusion assay relative to control; format: functional; details: read-out: Activity
[10] = Cytotoxicity against Homo sapiens (human) FL cells assessed as cell viability at 10^-4 M after 72 hr by trypan blue exclusion assay relative to control; format: cell-based; details: read-out: Activity
[11] = Cytotoxicity against Homo sapiens (human) FL cells assessed as cell viability at 10^-4 M after 24 hr by trypan blue exclusion assay relative to control; format: cell-based; details: read-out: Activity
[12] = Cytotoxicity against Homo sapiens (human) FL cells assessed as cell viability at 10^-4 M after 48 hr by trypan blue exclusion assay relative to control; format: cell-based; details: read-out: Activity

SMILES | viability at 100 µM (RD [1]) [%] | viability at 100 µM (RD [2]) [%] | viability at 100 µM (RD [3]) [%] | viability at 100 µM (A2058 [4]) [%] | viability at 100 µM (A2058 [5]) [%] | viability at 100 µM (A2058 [6]) [%] | viability at 100 µM (A2058 [7]) [%] | viability at 96 h, 100 µM [8] [%] | viability at 100 µM (RD [9]) [%] | viability at 72 h, 100 µM [10] [%] | viability at 24 h, 100 µM [11] [%] | viability at 48 h, 100 µM [12] [%]
CCOC(=O)N1c2ccccc2N(C(=O)OCC)C1CC(C)=O | 0 | 0 | 0 | 0 | 0 | 0 | 0 | 0 | 0 | 0 | 0 | 0
CCOC(=O)N1c2cc(C)c(C)cc2N(C(=O)OCC)C1CC(=O)c1ccccc1 | 47.1 | 32.1 | 52.3 | 31.6 | 50 | 83.3 | 97.1 | 62.1 | 45.5 | 60 | 67.6 | 46.8
CCOC(=O)N1c2ccccc2N(C(=O)OCC)C1CC(=O)/C=C/c1ccccc1 | 52.9 | 39.4 | 59.1 | 7.14 | 8.14 | 12.1 | 14.7 | 81.1 | 45.5 | 83.6 | 111 | 77.9
CCOC(=O)N1c2cc(C)c(C)cc2N(C(=O)OCC)C1CC(=O)/C=C/c1ccccc1 | 81.4 | 79.8 | 70.5 | 75.5 | 80.2 | 86.4 | 82.3 | 74.2 | 86.4 | 60 | 94.6 | 67.5
CCOC(=O)N1c2ccccc2N(C(=O)OCC)C1CC(=O)Cc1ccccc1 | 14.3 | 11.9 | 31.8 | 6.12 | 11.6 | 21.2 | 41.2 | 3.03 | 63.6 | 5.45 | 27 | 10.4
CCOC(=O)N1c2cc(C)c(C)cc2N(C(=O)OCC)C1CC(C)=O | 24.3 | 17.9 | 40.9 | 70.4 | 69.8 | 57.6 | 82.3 | 39.4 | 31.2 | 15.4 | 111 | 31.2
CCOC(=O)N1c2ccccc2N(C(=O)OCC)C1CC(=O)c1ccccc1 | 92.9 | 88.1 | 93.2 | 65.3 | 53.5 | 106 | 94.1 | 77.3 | 86.4 | 74.5 | 75.7 | 83.1
CCOC(=O)N1c2cc(C)c(C)cc2N(C(=O)OCC)C1CC(=O)c1ccc(OC)cc1 | 58.6 | 57.1 | 43.2 | 33.7 | 38.4 | 54.5 | 55.9 | 65.9 | 31.2 | 63.6 | 75.7 | 49.4
CCOC(=O)N1c2ccccc2N(C(=O)OCC)C1CC(=O)c1ccc(O)cc1 | 5.71 | 3.57 | 13.6 | 6.12 | 9.3 | 12.1 | 35.3 | 4.55 | 27.3 | 7.27 | 29.7 | 11.7
